Assay results from patent publication US20250195530A1, “POLQ INHIBITORS” (ASTRAZENECA AB, priority 2022, published 2025).
Where two headings read alike, the source gives them in different places. Blank lines part the entries; values can stand above or below the compound they belong to.

Tests used:
DLD-1 cells = assay: Inhibition of proliferation, DLD-1 BRCA2 wt control (Cell Titre Glo 3D); format: cell-based; settings: for IC50: Homo sapiens
Procedure, shortened: (§1)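 DLD-1 BRCA2−/− (3,000 cells/mL) and parental DLD-1 (1,500 cells/mL) cells in phenol red-free RPMI 1640 with 10% FBS were exposed to a 10-point, three-fold compound series from 10 μM to 0.51 nM at 37 °C, 5% CO2. Medium and compound were replenished on day 6. CellTiter-Glo 3D luminescence was read on day 7 (DLD-1) or day 12 (BRCA2−/−), and IC50 was taken as 50% reduction of maximum signal.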

DLD-1 BRCA2−/− cells = assay: Homologous recombination synthetic lethal inhibition of proliferation, DLD-1 BRCA2-/- (Cell Titre Glo 3D); format: cell-based; settings: for IC50: Homo sapiens
Procedure, shortened: as §1

[1] = DLD-1, DLD1 BRCA2 wt cells, mean, read-out: POLQ PD Prolif Lumin DLD1 mean PIC50 (converted)
[2] = DLD-1, DLD-1 BRCA2 −/− cells, mean, read-out: POLQ PD Prolif Lumin BRCA2 −/− mean pIC50 (converted)
[3] = DLD-1, 168 h, DLD-1 BRCA2 wt cells, 7 days, read-out: POLQ PD Prolif Lumin DLD1 mean pIC50 (converted)
[4] = DLD-1, 288 h, DLD-1 BRCA2−/− cells, 12 days, read-out: POLQ PD Prolif Lumin BRCA2 −/− mean pIC50 (converted)
[5] = DLD-1, second proliferation column (c6), DLD-1 BRCA2 wt control, read-out: POLQ PD Prolif Lumin (converted)
[6] = DLD-1, first proliferation column (c5), DLD-1 BRCA2-/-, read-out: POLQ PD Prolif Lumin (converted)

Compound: CC1(Oc2cccc3c2nc(-c2ccc(OCCN4CCNCC4)cc2Cl)n3Cc2ccccc2)CCC1 [Example P2, 1-benzyl-2-(2-chloro-4-(2-(piperazin-1-yl)ethoxy)phenyl)-4-(1-methylcyclobutoxy)-1H-benzo[d]imidazole]
- IC50 (DLD-1 cells; [3]): 2.51 µM
- IC50 (DLD-1 BRCA2−/− cells; [4]): 0.794 µM

Compound: COc1cccc(-c2nc3c(OC4(C)CC4)ncnc3n2Cc2ccccc2)c1Cl [Example C6, 9-benzyl-8-(2-chloro-3-methoxyphenyl)-6-(1-methylcyclopropoxy)-9H-purine]
- IC50 (DLD-1 cells; [3]): > 10 µM
- IC50 (DLD-1 BRCA2−/− cells; [4]): 0.0794 µM

Compound: Cc1c(OCCN2CCNCC2)cncc1-c1nc2c(OC3(C)CC3)ncnc2n1Cc1ccccc1 [Example 22, 9-Benzyl-8-(4-methyl-5-(2-(piperazin-1-yl)ethoxy)pyridin-3-yl)-6-(1-methylcyclopropoxy)-9H-purine]
- IC50 (DLD-1 cells; [3]): > 10 µM
- IC50 (DLD-1 BRCA2−/− cells; [4]): 0.631 µM

Compound: CC1(Oc2ncnc3c2nc(-c2ccc(OC4CCNCC4)cc2Cl)n3Cc2ccccc2)CC1 [Example D33, 9-benzyl-8-(2-chloro-4-(piperidin-4-yloxy)phenyl)-6-(1-methylcyclopropoxy)-9H-purine]
- IC50 (DLD-1 cells; [3]): 3.16 µM
- IC50 (DLD-1 BRCA2−/− cells; [4]): 0.0631 µM

Compound: CC1(Oc2ncnc3c2nc(-c2ccc(CN4CCNCC4)cc2Cl)n3Cc2ccccc2)CC1 [Example N6, 9-benzyl-8-(2-chloro-4-(piperazin-1-ylmethyl)phenyl)-6-(1-methylcyclopropoxy)-9H-purine]
- IC50 (DLD-1 cells; [3]): 3.98 µM
- IC50 (DLD-1 BRCA2−/− cells; [4]): 0.1 µM

Compound: CC(C)Oc1ccc2c(c1)nc(-c1ccc(OC3CCCN(C)CC3)cc1Cl)n2Cc1ccccc1 (single isomer, unassigned) [Example A10, 1-benzyl-2-(2-chloro-4-((1-methylazepan-4-yl)oxy)phenyl)-5-isopropoxy-1H-benzo[d]imidazole]
- IC50 (DLD-1 cells; [3]): 2.51 µM
- IC50 (DLD-1 BRCA2−/− cells; [4]): 0.794 µM

Compound: CC1(Oc2ncnc3c2nc(-c2ccc(O[C@H]4CCNC4)cc2Cl)n3Cc2ccccc2)CC1 [Example D17, (S)-9-benzyl-8-(2-chloro-4-(pyrrolidin-3-yloxy)phenyl)-6-(1-methylcyclopropoxy)-9H-purine]
- IC50 (DLD-1 cells; [3]): 3.16 µM
- IC50 (DLD-1 BRCA2−/− cells; [4]): 0.1 µM

Compound: Cc1ccnc(Cn2c(-c3ccc(C(=O)N4CC5CC(C4)N5)cc3Cl)nc3c(OC4(C)CC4)ncnc32)c1 [Example T427, (3,6-diazabicyclo[3.1.1]heptan-3-yl)(3-chloro-4-(6-(1-methylcyclopropoxy)-9-((4-methylpyridin-2-yl)methyl)-9H-purin-8-yl)phenyl)methanone]
- IC50 (DLD-1 cells; DLD-1, proliferation, luminescence, second Prolif column (c6), taken as DLD-1 BRCA2 wt control, read-out: POLQ PD Prolif Lumin (converted)): > 10 µM
- IC50 (DLD-1 BRCA2−/− cells; DLD-1, proliferation, luminescence, taken as DLD-1 BRCA2-/-, read-out: POLQ PD Prolif Lumin (converted)): 7.94 µM

Compound: CN(C)CCCOc1ccc(-c2nc3c(OC4(C)CC4)ncnc3n2Cc2cc(Cl)ccn2)c(Cl)c1 [Example 17, 3-(3-Chloro-4-(9-((4-chloropyridin-2-yl)methyl)-6-(1-methylcyclopropoxy)-9H-purin-8-yl)phenoxy)-N,N-dimethylpropan-1-amine]
- IC50 (DLD-1 cells; [3]): > 10 µM
- IC50 (DLD-1 BRCA2−/− cells; [4]): 0.0794 µM

Compound: CN1CCCC1CCOc1ccc(-c2nc3c(OC4(C)CC4)ncnc3n2Cc2ccccc2)c(Cl)c1 (single isomer, unassigned) [Example D4, 9-benzyl-8-(2-chloro-4-(2-(1-methylpyrrolidin-2-yl)ethoxy)phenyl)-6-(1-methylcyclopropoxy)-9H-purine]
- POLQ PD Prolif Lumin DLD1 mean pIC50 (DLD-1 cells; DLD-1 BRCA2 wt cells, 7 days): 6.2
- POLQ PD Prolif Lumin BRCA2 −/− mean pIC50 (DLD-1 BRCA2−/− cells; DLD-1 BRCA2−/− cells, 12 days): 7.3

Compound: CC(=O)NCCCOc1ccc(-c2nc3c(OC4(C)CC4)ncnc3n2Cc2ccccc2)c(Cl)c1 [Example D7, N-(3-(4-(9-benzyl-6-(1-methylcyclopropoxy)-9H-purin-8-yl)-3-chlorophenoxy)propyl)acetamide]
- IC50 (DLD-1 cells; [3]): 6.31 µM
- IC50 (DLD-1 BRCA2−/− cells; [4]): 0.126 µM

Compound: COc1ccc(Cl)cc1Cn1c(-c2ccc(OCC[C@H](C)C(=O)O)cc2Cl)nc2c(OC3(C)CC3)ncnc21 [Example 48, (S)-4-(3-chloro-4-(9-(5-chloro-2-methoxybenzyl)-6-(1-methylcyclopropoxy)-9H-purin-8-yl)phenoxy)-2-methylbutanoic acid]
- IC50 (DLD-1 cells; DLD-1, 168 h, DLD-1 (BRCA2 wt control), 7 days, Cell Titre Glo 3D, read-out: POLQ PD Prolif Lumin DLD1 Mean pIC50 (converted)): > 10 µM
- IC50 (DLD-1 BRCA2−/− cells; DLD-1, 288 h, DLD-1 BRCA2−/−, 12 days, Cell Titre Glo 3D, read-out: POLQ PD Prolif Lumin BRCA2 −/− Mean pIC50 (converted)): 0.0398 µM

Compound: CC1(Oc2cccc3c2nc(-c2ccc(OCCN4CCNCC4)cc2Cl)n3Cc2cc(Cl)ccn2)CC1 [Example 15, 2-(2-chloro-4-(2-(piperazin-1-yl)ethoxy)phenyl)-1-((4-chloropyridin-2-yl)methyl)-4-(1-methylcyclopropoxy)-1H-benzo[d]imidazole]
- IC50 (DLD-1 cells; [3]): 6.31 µM
- IC50 (DLD-1 BRCA2−/− cells; [4]): 0.251 µM

Second part, led by results:

- IC50 (DLD-1 cells; [1]): > 10 µM
Compound: CNCCCOc1ccc(-c2nc3c(OC4(C)CC4)ncnc3n2Cc2ncc(C)s2)c(Cl)c1 [Example T74, 3-(3-chloro-4-(6-(1-methylcyclopropoxy)-9-((5-methylthiazol-2-yl)methyl)-9H-purin-8-yl)phenoxy)-N-methylpropan-1-amine]
- IC50 (DLD-1 BRCA2−/− cells; [2]): 0.501 µM

- POLQ PD Prolif Lumin DLD1 mean pIC50 (DLD-1 cells; DLD1 BRCA2 wt, mean): 5.1
Compound: COc1ccc(Cl)cc1Cn1c(-c2cccc(O[C@H]3CC[C@H](C(=O)O)CC3)c2Cl)nc2c(OC3(C)CC3)ncnc21 [Example U38, (1r,4r)-4-(2-chloro-3-(9-(5-chloro-2-methoxybenzyl)-6-(1-methylcyclopropoxy)-9H-purin-8-yl)phenoxy)cyclohexane-1-carboxylic acid]
- POLQ PD Prolif Lumin BRCA2 −/− mean pIC50 (DLD-1 BRCA2−/− cells; DLD-1 BRCA2 −/−, mean): 7.5

- IC50 (DLD-1 cells; DLD-1, DLD1 BRCA2 wt, mean, read-out: POLQ PD Prolif Lumin DLD1 mean pIC50 (converted)): > 10 µM
Compound: COc1ccc(Cl)cc1Cn1c(-c2cccc(OCC[C@@H](C)C(=O)O)c2Cl)nc2c(OC3(C)CC3)ncnc21 [Example U75, (R)-4-(2-chloro-3-(9-(5-chloro-2-methoxybenzyl)-6-(1-methylcyclopropoxy)-9H-purin-8-yl)phenoxy)-2-methylbutanoic acid]
- IC50 (DLD-1 BRCA2−/− cells; DLD-1, DLD-1 BRCA2 −/−, mean, read-out: POLQ PD Prolif Lumin BRCA2 −/− mean pIC50 (converted)): 0.002 µM

- IC50 (DLD-1 cells; [5]): > 10 µM
Compound: COc1ccc(Cn2c(-c3ccc(OCCN4CCNCC4)cc3Cl)nc3c(OC4(C)CC4)ncnc32)nc1 [Example T532, 8-(2-chloro-4-(2-(piperazin-1-yl)ethoxy)phenyl)-9-((5-methoxypyridin-2-yl)methyl)-6-(1-methylcyclopropoxy)-9H-purine]
- IC50 (DLD-1 BRCA2−/− cells; [6]): 6.31 µM

- IC50 (DLD-1 cells; [5]): > 10 µM
Compound: Cc1ccnc(Cn2c(-c3ccc(OCCN4CC[C@@H](O)C4)cc3Cl)nc3c(OC4(C)CC4)ncnc32)c1 [Example T512, (R)-1-(2-(3-chloro-4-(6-(1-methylcyclopropoxy)-9-((4-methylpyridin-2-yl)methyl)-9H-purin-8-yl)phenoxy)ethyl)pyrrolidin-3-ol]
- IC50 (DLD-1 BRCA2−/− cells; [6]): 0.2 µM

- IC50 (DLD-1 cells; DLD-1, second proliferation column, DLD-1 BRCA2 wt control, read-out: POLQ PD Prolif Lumin (converted)): > 10 µM
Compound: Cc1ccnc(Cn2c(-c3ccc(CC(=O)N4CCCNCC4)cc3Cl)nc3c(OC4(C)CC4)ncnc32)c1 [Example T589, 2-(3-chloro-4-(6-(1-methylcyclopropoxy)-9-((4-methylpyridin-2-yl)methyl)-9H-purin-8-yl)phenyl)-1-(1,4-diazepan-1-yl)ethan-1-one]
- IC50 (DLD-1 BRCA2−/− cells; DLD-1, first proliferation column, DLD-1 BRCA2-/-, read-out: POLQ PD Prolif Lumin (converted)): 1.58 µM

- IC50 (DLD-1 cells; [5]): > 7.94 µM
Compound: Cc1cnc(Cn2c(-c3ccc(OCCCN(C)C)cc3Cl)nc3c(OC4(C)CC4)ncnc32)s1 [Example T148, 3-(3-chloro-4-(6-(1-methylcyclopropoxy)-9-((5-methylthiazol-2-yl)methyl)-9H-purin-8-yl)phenoxy)-N,N-dimethylpropan-1-amine]
- IC50 (DLD-1 BRCA2−/− cells; [6]): 0.316 µM

- IC50 (DLD-1 cells; [5]): > 10 µM
Compound: Cc1ccnc(Cn2c(-c3ccc(CN(C)C)cc3Cl)nc3c(OC4(C)CC4)ncnc32)c1 [Example T136, 1-(3-chloro-4-(6-(1-methylcyclopropoxy)-9-((4-methylpyridin-2-yl)methyl)-9H-purin-8-yl)phenyl)-N,N-dimethylmethanamine]
- IC50 (DLD-1 BRCA2−/− cells; [6]): 0.501 µM

- IC50 (DLD-1 cells; DLD-1, DLD-1 BRCA2 wt control proliferation, column head only partly shown, read-out: POLQ PD Prolif Lumin (converted)): > 10 µM
Compound: Cc1ccnc(Cn2c(-c3ccc(O[C@H]4CCNC4)cc3Cl)nc3c(OC4(C)CC4)ncnc32)c1 [Example T208, (S)-8-(2-chloro-4-(pyrrolidin-3-yloxy)phenyl)-6-(1-methylcyclopropoxy)-9-((4-methylpyridin-2-yl)methyl)-9H-purine]
- IC50 (DLD-1 BRCA2−/− cells; DLD-1, DLD-1 BRCA2-/- proliferation, column head only partly shown, read-out: POLQ PD Prolif Lumin (converted)): 0.501 µM

- IC50 (DLD-1 cells; [3]): > 10 µM
Compound: CCc1ccnc(Cn2c(-c3ccc(OCCN4CCNCC4)cc3Cl)nc3c(OC4(C)CC4)ncnc32)c1 [Example S4, 8-(2-chloro-4-(2-(piperazin-1-yl)ethoxy)phenyl)-9-((4-ethylpyridin-2-yl)methyl)-6-(1-methylcyclopropoxy)-9H-purine]
- IC50 (DLD-1 BRCA2−/− cells; [4]): 0.794 µM

- IC50 (DLD-1 cells; [1]): > 10 µM
Compound: Cc1cnc(Cn2c(-c3cccc(OCCN(C)C)c3Cl)nc3c(OC4(C)CC4)ncnc32)s1 [Example T73, 2-(2-chloro-3-(6-(1-methylcyclopropoxy)-9-((5-methylthiazol-2-yl)methyl)-9H-purin-8-yl)phenoxy)-N,N-dimethylethan-1-amine]
- IC50 (DLD-1 BRCA2−/− cells; [2]): 0.631 µM
